Reference: publication PMC2957699, “Iodothyronine Interactions with the System L1 Amino Acid Exchanger in 3T3-L1 Adipocytes” (Journal of Thyroid Research, 2010)

Legend:
Format in all cases: cell-based
[1] = target: T1, LAT1 (System L1 catalytic subunit) (Mus musculus, UniProt Q9Z127); assay: inhibition of […] [3H]phenylalanine uptake at […]; details: read-out: % inhibition at 10 mM
T1 construct: gene Slc7a5; endogenous System L1 in 3T3-L1 adipocytes; with SLC3A2 (4F2hc/CD98)

[2] = target: T1, LAT1 (System L1 catalytic subunit); assay: trans stimulation of [3H]phenylalanine efflux; inhibition of phenylalanine and T3 uptake
[3] = target: T1, LAT1 (System L1 catalytic subunit); assay: inhibition of [3H]phenylalanine uptake ([…] at […]) and of leucine trans stimulated efflux; details: read-out: % inhibition at 10 μM
[4] = target: T1, LAT1 (System L1 catalytic subunit); assay: saturable [3H]phenylalanine uptake (Km) in 3T3-L1 cells

T1 sequence (Q9Z127 whole entry): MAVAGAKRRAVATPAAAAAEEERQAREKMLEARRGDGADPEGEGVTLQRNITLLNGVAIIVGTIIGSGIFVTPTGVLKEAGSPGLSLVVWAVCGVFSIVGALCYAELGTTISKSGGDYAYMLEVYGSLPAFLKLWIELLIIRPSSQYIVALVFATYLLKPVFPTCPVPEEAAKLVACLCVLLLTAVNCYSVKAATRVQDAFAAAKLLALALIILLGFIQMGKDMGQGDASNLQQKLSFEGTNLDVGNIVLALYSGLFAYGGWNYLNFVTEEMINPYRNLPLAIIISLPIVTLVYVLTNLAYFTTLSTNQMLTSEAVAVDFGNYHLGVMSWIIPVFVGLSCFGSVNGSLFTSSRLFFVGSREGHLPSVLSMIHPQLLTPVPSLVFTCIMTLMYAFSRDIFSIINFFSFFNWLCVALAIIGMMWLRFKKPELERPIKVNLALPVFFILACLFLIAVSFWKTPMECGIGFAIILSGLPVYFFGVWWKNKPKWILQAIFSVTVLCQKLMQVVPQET
T1 sequence (P10852 whole entry partner): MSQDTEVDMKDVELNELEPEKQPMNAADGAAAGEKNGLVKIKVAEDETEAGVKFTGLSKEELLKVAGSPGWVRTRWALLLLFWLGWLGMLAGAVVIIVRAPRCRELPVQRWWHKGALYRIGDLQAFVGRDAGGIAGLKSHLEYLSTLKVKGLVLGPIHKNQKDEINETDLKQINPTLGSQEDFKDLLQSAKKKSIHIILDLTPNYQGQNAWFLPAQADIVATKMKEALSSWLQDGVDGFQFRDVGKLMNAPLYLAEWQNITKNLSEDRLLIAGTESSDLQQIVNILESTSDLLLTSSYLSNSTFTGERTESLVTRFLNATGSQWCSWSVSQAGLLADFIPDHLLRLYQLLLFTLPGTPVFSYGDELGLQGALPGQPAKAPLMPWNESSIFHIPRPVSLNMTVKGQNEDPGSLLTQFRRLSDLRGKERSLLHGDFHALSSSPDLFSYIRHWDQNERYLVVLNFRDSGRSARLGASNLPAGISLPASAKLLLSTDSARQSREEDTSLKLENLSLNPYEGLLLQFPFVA

NC1(C(=O)O)CC2CCC1C2 (stereo not shown) [BCH, 2-aminobicyclo-(2,2,1)-heptane-2-carboxylic acid]
inhibition at 10000 µM [1]: > 95%

CC(C)C[C@H](N)C(=O)O [leucine]
trans stimulation of [3H]phenylalanine efflux; inhibition of phenylalanine and T [2]: Efflux of pre-loaded L-[^3H]phenylalanine from 3T3-L1 adipocytes was trans stimulated in a concentration-dependent manner by external leucine

N[C@@H](Cc1ccc(Oc2cc(I)c(O)c(I)c2)c(I)c1)C(=O)O [rT3, Reverse L-triiodothyronine]
inhibition at 10 µM [3]: 57%

N[C@@H](Cc1ccccc1)C(=O)O [L-phenylalanine]
Km [4]: 31 µM
